Measurements reported in PMC10145360, “Antiplatelet Aggregation Properties of Cirsilineol: A Novel Inhibitor of Blood Coagulation Factor Xa” (Pharmaceuticals, 2023).

Key:
[1] = test system: FX activation by FVIIa on HUVECs; assay: Production of FXa on the surface of TNF-α-stimulated HUVECs; type: cell-based, human; conditions: pre-incubation 10 min
Procedure: Figure 5 Effects of CSL on the catalytic activity and production of FXa. […] Plots show the average values of five independent measurements. (B) HUVECs pre-incubated with the indicated concentrations of CSL for 10 min were stimulated with TNF-α (10 ng/mL) for 6 h and incubated with FX (175 nM) and FVIIa (10 nM) with/without anti-tissue factor antibody (25 µg/mL). The production of FXa was characterized as described in the Methods section. (C) PRP was preincubated for 5 min with different concentrations of CSL, Riva, or the vehicle. Platelet aggregation was initiated with FXa (52 µg/mL), and the platelet aggregation was recorded using an aggregometer. Data are shown as mean values ± SD of five independent experiments. * p < 0.05 vs. TNF-α alone (B) or FXa (C). D = 0.2% DMSO, used as the vehicle control.
Confluent HUVEC monolayers developed on 96-well culture plates that were stimulated with TNF-α (10 ng/mL) for 6 h after exposure to the relevant CSL concentration for 10 min. […] The reaction was stopped by adding buffer A supplemented with 10 mM EDTA, and the amount of FXa produced was determined by adding S-2765. Spectrophotometric monitoring of the absorbance over a 2 min period was performed at 405 nm. […]

platelets = assay: P-selectin and PAC-1 expression, flow cytometry; type: cell-based, human; conditions: platelets activated by ADP or U46619; CSL 10 or 20 μM
Procedure: Figure 7 Effects of CSL on the expression of P-selectin and PAC-1 and the production of NO and ET-1. (A) Rinsed platelets were incubated with DMSO or CSL (10 or 20 μM) for 3 min at 37 °C, and stimulation of ADP ((A,C) 10 μM) or U46619 ((B,D) 6 μM) was given for 6 min. The expressions of P-selectin and PAC-1 (A,B) and the production of NO and ET-1 (C,D) were measured as described in the Methods section. Data are shown as mean values ± SD of five independent experiments. * p < 0.05 vs. (A,C) ADP or (B,D) U46619 alone. D = 0.2% DMSO, used as the vehicle control.
PAC-1 and P-selectin expression levels were assessed by modifying accepted techniques. Briefly, 20 μL of DMSO or CSL (10 to 20 μM) were incubated with 0.5 mL of cleaned platelets (2 × 10^8 platelets/mL) for 3 min. The platelet suspension was refrigerated at 4 °C after stimulation with ADP (10 μM) or U46619 (6 μM) for 6 min at 37 °C. Subsequently, 50 μL of the sample was mixed with activation-specific anti-PAC-1 and anti-CD61-PE in saturated concentrations, and the mixture was then incubated for 25 min in the dark to determine the expression of PAC-1. […] Finally, 5000 events were evaluated for each sample. The mean fluorescence intensities from each channel were expressed using BD Accuri C6 software (BD Biosciences, San Diego, CA, USA). […]

[2] = test system: human platelet-rich plasma (PRP); assay: In vitro agonist-induced platelet aggregation (aggregometer); type: cell-based
Procedure: Figure 3 Effects of CSL on agonist-induced platelet aggregation. Platelet-rich plasma (PRP) was preincubated for 5 min with different concentrations of CSL, Riva, or the vehicle. […] Data are shown as mean values ± SD of five independent experiments. * p < 0.05 vs. D. D = 0.2% DMSO, used as the vehicle control.
Ten fasting healthy volunteers (aged 24–28; six women and four men) who were free of allergies, cardiovascular problems, carbohydrate, or lipid metabolic abnormalities and had not taken any morning medication had their blood samples taken. None of our subjects used addictive drugs or antioxidant food supplements, and their diets were well balanced. The plasma from the blood samples was immediately spun down (1300× g for 15 min) to separate it from sodium citrate (10.9 mM) and pooled for the following investigations. Next, human blood samples were spun down at room temperature to rapidly separate the PRP. The PRP concentration was adjusted to 1 × 10^9 platelets/mL using a hemocytometer. After being rinsed once in HEPES buffer containing 1 mM CaCl2, the PRP pellet was maintained at room temperature for an additional 30 min. Then, 10 mL of the platelet samples were utilized to measure each clotting time point. The IRB of Kyungpook National University Hospital (Daegu, Republic of Korea) approved this study protocol (KNUH 2012-01-010).
CSL dissolved in DMSO was incubated with human PRP for a specified time (1, 3, 5, or 10 min). […]

COc1cc(-c2cc(=O)c3c(O)c(OC)c(OC)cc3o2)ccc1O [CSL, 4,5-dihydroxy-3,6,7-trimethoxyflavone]
FX activation by FVIIa [1]: inhibited FX activation in a concentration-dependent manner
expression of P-selectin and PAC-1 (platelets): reduced the expression
platelet aggregation induced by ADP ([2]; ADP 10 μM): significantly suppressed
platelet aggregation induced by U46619 ([2]; U46619 6 μM): significantly suppressed
platelet aggregation induced by collagen ([2]; collagen 1 μg/mL): significantly suppressed
